Patent US20060069132A1, “Azolecarboxamide herbicides” (priority 2004, published 2006)

What was measured:
Experiment in all cases: Test E pre-/postemergence herbicide test
Russian thistle = assay type: in vivo, Salsola kali; details: Preemergence
How it was run: (§1)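 Each species was compared with untreated controls 12 to 14 days after greenhouse application and assigned a visual score from 0 (no effect) to 100 (complete control). Applications were preemergence to seeded soil or postemergence to 1- to 4-leaf plants, using a solvent-plus-surfactant formulation.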

common chickweed = assay type: in vivo, Stellaria media
How it was run: as §1

Surinam grass = assay type: in vivo, Urochloa decumbens
How it was run: as §1

itchgrass = assay type: in vivo, Rottboellia cochinchinensis
How it was run: as §1

bermudagrass = assay type: in vivo, Cynodon dactylon
How it was run: as §1

common sowthistle = assay type: in vivo, Sonchus oleraceous
How it was run: as §1

purple nutsedge = assay type: in vivo, Cyperus rotundus; details: scale 0 to 100
How it was run: as §1

annual bluegrass = assay type: in vivo, Poa annua
How it was run: as §1

quackgrass = assay type: in vivo, Elytrigia repens
How it was run: as §1

pitted morningglory = assay type: in vivo, Ipomoea lacunosa
How it was run: as §1

[1] = Postemergence, 250 g ai/ha, scale 0 to 100
[2] = Preemergence, 125 g ai/ha, scale 0 to 100
[3] = Preemergence, 250 g ai/ha, scale 0 (no effect) to 100 (complete control)
[4] = Preemergence, 500 g ai/ha, scale 0 (no effect) to 100 (complete control)
[5] = postemergence, 125 g ai/ha, scale 0 to 100
[6] = postemergence, 62 g ai/ha, scale 0 to 100
[7] = Postemergence, 500 g ai/ha, scale 0 to 100
[8] = Preemergence, 62 g ai/ha, scale 0 to 100

CCn1nc(C(C)(C)C)cc1C(=O)Nc1cccc(C(N)=O)n1 [Compound 162, 6-[[[3-(1,1-dimethylethyl)-1-ethyl-1H-pyrazol-5-yl]carbonyl]amino]-2-pyridinecarboxamide]
Plant response rating, Thistle (Russian thistle; 62 g ai/ha, scale 0 to 100): 50 | Plant response rating, Thistle (Russian thistle; 125 g ai/ha, scale 0 to 100): 50 | Plant response rating, Thistle (Russian thistle; 500 g ai/ha, scale 0 (no effect) to 100 (complete control)): 70 | Plant response rating, Chickweed (common chickweed; [1]): 100 | Plant response rating, Chickweed (common chickweed; [2]): 95 | Plant response rating, Chickweed (common chickweed; [3]): 95 | Plant response rating, Chickweed (common chickweed; [4]): 95 | Plant response rating, Chickweed (common chickweed; [5]): 100 | Plant response rating, Chickweed (common chickweed; [6]): 80 | Plant response rating, Surinam Grass (Surinam grass; [7]): 100 | Plant response rating, Surinam Grass (Surinam grass; [1]): 98 | Plant response rating, Surinam Grass (Surinam grass; [8]): 60 | Plant response rating, Surinam Grass (Surinam grass; [2]): 75 | Plant response rating, Surinam Grass (Surinam grass; [4]): 100 | Plant response rating, Surinam Grass (Surinam grass; [5]): 90 | Plant response rating, Surinam Grass (Surinam grass; [6]): 50 | Plant response rating, Itchgrass (itchgrass; [7]): 95 | Plant response rating, Itchgrass (itchgrass; [1]): 95 | Plant response rating, Itchgrass (itchgrass; [8]): 40 | Plant response rating, Itchgrass (itchgrass; [2]): 95 | Plant response rating, Itchgrass (itchgrass; [3]): 95 | Plant response rating, Itchgrass (itchgrass; [4]): 100 | Plant response rating, Itchgrass (itchgrass; [5]): 85 | Plant response rating, Itchgrass (itchgrass; [6]): 75 | Plant response rating, Bermudagrass (bermudagrass; [7]): 80 | Plant response rating, Bermudagrass (bermudagrass; [1]): 70 | Plant response rating, Bermudagrass (bermudagrass; [8]): 70 | Plant response rating, Bermudagrass (bermudagrass; [2]): 80 | Plant response rating, Bermudagrass (bermudagrass; [3]): 90 | Plant response rating, Bermudagrass (bermudagrass; [4]): 100 | Plant response rating, Bermudagrass (bermudagrass; [5]): 30 | Plant response rating, Bermudagrass (bermudagrass; [6]): 0 | Plant response rating, Sowthistle (common sowthistle; [7]): 100 | Plant response rating, Sowthistle (common sowthistle; [1]): 75 | Plant response rating, Sowthistle (common sowthistle; [8]): 40 | Plant response rating, Sowthistle (common sowthistle; [2]): 60 | Plant response rating, Sowthistle (common sowthistle; [3]): 80 | Plant response rating, Sowthistle (common sowthistle; [4]): 95 | Plant response rating, Sowthistle (common sowthistle; [5]): 75 | Plant response rating, Sowthistle (common sowthistle; [6]): 75 | Plant response rating, Nutsedge, Purple (purple nutsedge; Postemergence, 250 g ai/ha): 75 | Plant response rating, Nutsedge, Purple (purple nutsedge; Preemergence, 62 g ai/ha): 0 | Plant response rating, Bluegrass (annual bluegrass; [7]): 98 | Plant response rating, Bluegrass (annual bluegrass; [1]): 98 | Plant response rating, Bluegrass (annual bluegrass; [8]): 100 | Plant response rating, Bluegrass (annual bluegrass; [2]): 100 | Plant response rating, Bluegrass (annual bluegrass; [3]): 100 | Plant response rating, Bluegrass (annual bluegrass; [4]): 100 | Plant response rating, Bluegrass (annual bluegrass; [5]): 95 | Plant response rating, Bluegrass (annual bluegrass; [6]): 90 | Plant response rating, Quackgrass (quackgrass; [7]): 95 | Plant response rating, Quackgrass (quackgrass; [1]): 90 | Plant response rating, Quackgrass (quackgrass; [8]): 20 | Plant response rating, Quackgrass (quackgrass; [2]): 60 | Plant response rating, Quackgrass (quackgrass; [3]): 75 | Plant response rating, Quackgrass (quackgrass; [4]): 90 | Plant response rating, Quackgrass (quackgrass; [5]): 70 | Plant response rating, Quackgrass (quackgrass; [6]): 50 | Plant response rating, Morningglory (pitted morningglory; [7]): 90 | Plant response rating, Morningglory (pitted morningglory; [1]): 80 | Plant response rating, Morningglory (pitted morningglory; [8]): 30 | Plant response rating, Morningglory (pitted morningglory; [2]): 60 | Plant response rating, Morningglory (pitted morningglory; [3]): 85 | Plant response rating, Morningglory (pitted morningglory; [4]): 100 | Plant response rating, Morningglory (pitted morningglory; [5]): 70 | Plant response rating, Morningglory (pitted morningglory; [6]): 30
